Laboratory results: patent US20250268923A1, “APPLICATION OF TETRACYCLINE COMPOUND IN TREATMENT OF TUMOR” (NANJING SHIJIANG MEDICINE TECHNOLOGY CO., LTD, priority 2021, published 2025)

Legend:
Format in all cases: cell-based
[1] = system: NCI-H82 (human small cell lung cancer cell); assay: Cell viability (CellTiter-Glo), NCI-H82; conditions: sensitive group, 3-4 days of culture, n=3, read-out: Tigecycline IC50
Method: (§1) The inhibitory effect of tigecycline on various tumor cell lines was detected using cell activity detection reagent.
(§2) Cell viability was detected using the Promega CellTiter-Glo kit, cell viability was determined by directly measuring intracellular ATP content. In the experiment, the IC50 value of tigecycline on various tumor cell lines was determined.
(§3) Each tumor cell was cultured separately in relevant medium (+p/s), and was incubated for 3 h, then the gradient diluted tigecycline was added. After 3-4 days of culture, the relevant IC50 (50% inhibiting concentration) was measured (n=3). The name, source and culture conditions of each tumor cell line were as follows:
Cell line NCI-H82 (ATCC, No. HTB-175) was cultured in 10% fetal bovine serum-containing RPMI1640 medium (+P/S).

[2] = system: G-401 (human renal carcinoma Wilms cell); assay: Cell viability (CellTiter-Glo), G-401; conditions: sensitive group, 3-4 days of culture, n=3, read-out: Tigecycline IC50
Method: as §1, §2, §3
Cell line G-401 (ATCC, No. CRL-1441) was cultured in 10% fetal bovine serum-containing McCoy's 5a medium (+P/S).

[3] = system: MDA-MB-453 (breast cancer cell); assay: Cell viability (CellTiter-Glo), MDA-MB-453; conditions: Homo sapiens, sensitive group, 3-4 days of culture, n=3, read-out: Tigecycline IC50
Method: as §1, §2, §3
Cell line MDA-MB-453 (ATCC, No. HTB-131) was cultured in 10% fetal bovine serum-containing Leibovitz's L-15 medium (+P/S).

[4] = system: SW48 (human colon adenocarcinoma cell); assay: Cell viability (CellTiter-Glo), SW48; conditions: sensitive group, 3-4 days of culture, n=3, read-out: Tigecycline IC50
Method: as §1, §2, §3
Cell line SW48 (ATCC, No. CCL-231) was cultured in 10% fetal bovine serum-containing Leibovitz's L-15 medium (+P/S).

[5] = system: WSU-DLCL2 (human diffuse large B-cell lymphoma); assay: Cell viability (CellTiter-Glo), WSU-DLCL2; conditions: WSUDLCL2, sensitive group, 3-4 days of culture, n=3, read-out: Tigecycline IC50
Method: as §1, §2, §3
Cell line WSU-DLCL2 (DSMZ, No. ACC-575) was cultured in 10% fetal bovine serum-containing RPMI1640 medium (+P/S).

[6] = system: CFPAC-1 (human pancreatic cancer cell); assay: Cell viability (CellTiter-Glo), CFPAC-1; conditions: insensitive group, 3-4 days of culture, n=3, read-out: Tigecycline IC50
Method: as §1, §2, §3
Cell line CFPAC-1 (ATCC, No. CRL-1918) was cultured in 10% fetal bovine serum-containing IMDM medium (+P/S).

[7] = system: 786-O (clear cell renal cell adenocarcinoma cell); assay: Cell viability (CellTiter-Glo), 786-O; conditions: Homo sapiens, 786-0, insensitive group, 3-4 days of culture, n=3, read-out: Tigecycline IC50
Method: as §1, §2, §3
Cell line 786-0 (ATCC, No. CRL-1932) was cultured in 10% fetal bovine serum-containing RPMI1640 medium (+P/S).

[8] = system: GB-1 (human glioblastoma cell); assay: Cell viability (CellTiter-Glo), GB-1; conditions: insensitive group, 3-4 days of culture, n=3, read-out: Tigecycline IC50
Method: as §1, §2, §3
Cell line GB-1 (JCRB, No. IFO050489) was cultured in 10% fetal bovine serum-containing DMEM medium (+P/S).

[9] = system: SF-126 (human glioblastoma multiforme cell); assay: Cell viability (CellTiter-Glo), SF-126; conditions: insensitive group, 3-4 days of culture, n=3, read-out: Tigecycline IC50
Method: as §1, §2, §3
Cell line SF126 (JCRB. No. IFO50286) was cultured in 10% fetal bovine serum-containing EMEM medium (+P/S).

[10] = system: NCI-H82 (Con) cell (transfected with empty virus vector); assay: Cell viability (CellTiter-Glo), control NCI-H82 (Con); conditions: Homo sapiens, n=3, read-out: IC50 value of tigecycline on control NCI-H82 cell (NCI-H82 (Con))
Text: (§4) The NNMT protein-overexpressing NCI-H82 cell (NCI-H82 (ov-NNMT)) was obtained by inserting the NNMT gene into NCI-H82 cell using a viral vector. The control NCI-H82 cell (NCI-H82 (Con)) was obtained by transfecting NCI-H82 cell with empty virus vector without carrying NNMT gene.
(§5) The expressing level of NNMT protein in control NCI-H82 cell (NCI-H82 (Con)) and NNMT protein-overexpressing NCI-H82 cell (NCI-H82 (ov-NNMT)) was detected using Western Blot assay (as shown in FIG. 7), it could be seen from FIG. 7 that the NNMT protein in NCI-H82 (ov-NNMT) cell was overexpressed compared with the expression level of NNMT protein in NCI-H82 (Con) cell.
(§6) The IC50 value of tigecycline on control NCI-H82 cell (NCI-H82 (Con)) and NNMT protein-overexpressing NCI-H82 cell (NCI-H82 (ov-NNMT)) was determined using Promega CellTiter-Glo kit which detected cell viability by directly measuring intracellular ATP content (n=3), the experiment result was shown in Table 4 below: […]

[11] = system: NCI-H82 (ov-NNMT) cell (NNMT protein-overexpressing); assay: Cell viability (CellTiter-Glo), NNMT-overexpressing NCI-H82; conditions: Homo sapiens, NNMT gene inserted by viral vector, n=3, read-out: IC50 value of tigecycline on NNMT protein-overexpressing NCI-H82 cell (NCI-H82 (ov-NNMT))
Text: as §4, §5, §6

With `CN(C)c1cc(NC(=O)CNC(C)(C)C)c(O)c2c1C[C@H]1C[C@H]3[C@H](N(C)C)C(O)=C(C(N)=O)C(=O)[C@@]3(O)C(O)=C1C2=O` [Tigecycline, tigecycline] the IC50 [1] was 0.79 µM, the IC50 [2] was 4.04 µM and the IC50 [3] was 5.05 µM. The IC50 [4] was 6.31 µM, the IC50 [5] was 1.36 µM and the IC50 [6] was 24.8 µM. The IC50 [7] was 26.9 µM, the IC50 [8] was 18.5 µM and the IC50 [9] was 26.3 µM. For the same compound, the IC50 [10] was 0.75 µM and the IC50 [11] was 2.31 µM.
